Source: patent US20070049564A1 (Wyeth, priority 2005, published 2007)
Converted amounts (≈) assume the structure as drawn. Read-outs that look alike come from different tables or passages of the source.

Assays:
[1] = tested on: E. coli #311; test: In vivo activity (oral, iv; ED50) against E. coli in mice; conditions: Escherichia coli
Description: . […] Smith and E. Coli #311 in mammals.
Results of the tests (MIC, oral and IV) are list in Table 7.

[2] = tested on: E. coli; test: Range of MIC for E. coli strains; conditions: Escherichia coli
[3] = tested on: Staph.; test: Range of MIC for Staph. strains, including MRSA; conditions: Staphylococcus aureus
[4] = tested on: Staph. aureus Smith; test: In vivo activity (oral, iv; ED50) against Staph. aureus Smith in mice
Description: Representative examples of compounds of Formula I were tested for the oral efficacy using S. aureus Smith in mice.

[5] = single intravenous dose (SIV), read-out: ED50 E. coli #311 SIV
[6] = single oral dose (SOD), read-out: ED50 E. coli #311 SOD
[7] = 20 h, read-out: Range of MIC, E. coli (Mouse Serum)
[8] = MRSA, read-out: Range of MIC, Staph (Mouse Serum)
[9] = MRSA, read-out: Range of MIC, Staph (Water)
[10] = read-out: Minimum inhibitory concentration (MIC), Staph (Human Serum)
[11] = Staphylococcus aureus, in Mus musculus, po, read-out: ED50 Staph Smith SOD
[12] = iv, read-out: ED50 Staph Smith SIV
[13] = read-out: Range of MIC, E. coli (Water)

SMILES	ED50 [1, 5] [mg/kg]	ED50 [1, 6] [mg/kg]	MIC [2, 7] [µg/mL]	MIC [3, 8] [µg/mL]	MIC [3, 9] [µg/mL]	MIC [3, 10] [µg/mL]	MIC ([3]; read-out: Minimum inhibitory concentration (MIC), Staph (Water)) [µg/mL]	ED50 [4, 11] [mg/kg]	ED50 [4, 12] [mg/kg]	MIC [2, 13] [µg/mL]
CN(C)c1cc(NC(=O)CN(C(=O)OCOC(=O)c2ccc(C(F)(F)F)cc2)C(C)(C)C)c(O)c2c1C[C@H]1C[C@H]3[C@H](N(C)C)C(O)=C(C(N)=O)C(=O)[C@@]3(O)C(O)=C1C2=O [Example 55, ({[(2-{[(5aR,6aS,7S,10aS)-9-(aminocarbonyl)-4,7-bis(dimethylamino)-1,8,10a,11-tetrahydroxy-10,12-dioxo-5,5a,6,6a,7,10,10a,12-octahydrotetracen-2-yl]amino}-2-oxoethyl)(tert-butyl)amino]carbonyl}oxy)methyl 4-(trifluoromethyl)benzoate]	4.69	32	0.5 to 8 (≈ 0.601 to 9.62 µM)	1 to 2 (≈ 1.2 to 2.4 µM)	2 to 8 (≈ 2.4 to 9.62 µM)	1 to 4 (≈ 1.2 to 4.81 µM)	2 to 8 (≈ 2.4 to 9.62 µM)	> 16	1.81	
CN(C)c1cc(NC(=O)CN(C(=O)OCOC(=O)c2ccc(-c3ccccc3)cc2)C(C)(C)C)c(O)c2c1C[C@H]1C[C@H]3[C@H](N(C)C)C(O)=C(C(N)=O)C(=O)[C@@]3(O)C(O)=C1C2=O [Example 71, ({[(2-{[(5aR,6aS,7S,10aS)-9-(aminocarbonyl)-4,7-bis(dimethylamino)-1,8,10a,11-tetrahydroxy-10,12-dioxo-5,5a,6,6a,7,10,10a,12-octahydrotetracen-2-yl]amino}-2-oxoethyl)(tert-butyl)amino]carbonyl}oxy)methyl 1,1′-biphenyl-4-carboxylate]	> 4	> 32	0.12 to 0.25 (≈ 0.143 to 0.298 µM)	0.5 to 1 (≈ 0.595 to 1.19 µM)	32 to 64 (≈ 38.1 to 76.2 µM)			> 32	1	> 64
CN(C)c1cc(NC(=O)CN(C(=O)OCOC(=O)C(c2ccccc2)c2ccccc2)C(C)(C)C)c(O)c2c1C[C@H]1C[C@H]3[C@H](N(C)C)C(O)=C(C(N)=O)C(=O)[C@@]3(O)C(O)=C1C2=O [Example 74, ({[(2-{[(5aR,6aS,7S,10aS)-9-(aminocarbonyl)-4,7-bis(dimethylamino)-1,8,10a,11-tetrahydroxy-10,12-dioxo-5,5a,6,6a,7,10,10a,12-octahydrotetracen-2-yl]amino}-2-oxoethyl)(tert-butyl)amino]carbonyl}oxy)methyl diphenylacetate]	> 4	> 32	0.25 to 1 (≈ 0.293 to 1.17 µM)	0.5 to 4 (≈ 0.586 to 4.68 µM)				> 32	1.08	> 64
CC(C)Oc1ccc(C(=O)OCOC(=O)N(CC(=O)Nc2cc(N(C)C)c3c(c2O)C(=O)C2=C(O)[C@]4(O)C(=O)C(C(N)=O)=C(O)[C@@H](N(C)C)[C@@H]4C[C@@H]2C3)C(C)(C)C)cc1 [Example 96, ({[(2-{[(5aR,6aS,7S,10aS)-9-(aminocarbonyl)-4,7-bis(dimethylamino)-1,8,10a,11-tetrahydroxy-10,12-dioxo-5,5a,6,6a,7,10,10a,12-octahydrotetracen-2-yl]amino}-2-oxoethyl)(tert-butyl)amino]carbonyl}oxy)methyl 4-isopropoxybenzoate]	2 to 4	> 32	0.25 to 1 (≈ 0.304 to 1.22 µM)	0.25 to 1 (≈ 0.304 to 1.22 µM)	4 to 16 (≈ 4.87 to 19.5 µM)			16 to 32	1 to 2	
CCCCCCCOc1ccc(C(=O)OCOC(=O)N(CC(=O)Nc2cc(N(C)C)c3c(c2O)C(=O)C2=C(O)[C@]4(O)C(=O)C(C(N)=O)=C(O)[C@@H](N(C)C)[C@@H]4C[C@@H]2C3)C(C)(C)C)cc1 [Example 102, ({[(2-{[(5aR,6aS,7S,10aS)-9-(aminocarbonyl)-4,7-bis(dimethylamino)-1,8,10a,11-tetrahydroxy-10,12-dioxo-5,5a,6,6a,7,10,10a,12-octahydrotetracen-2-yl]amino}-2-oxoethyl)(tert-butyl)amino]carbonyl}oxy)methyl 4-(heptyloxy)benzoate]	2 to 4	> 32	0.5 to 1 (≈ 0.569 to 1.14 µM)	0.5 to 1 (≈ 0.569 to 1.14 µM)		> 64		19.8	1.59	> 64
